Measurements from patent US11840495B2, “Compositions and methods related to di-substituted bicyclo[2.2.1] heptanamine-containing compounds” (The Broad Institute, Inc., priority 2020, dated 2023).
Like-named read-outs stand apart in the source and are kept apart here.

What was measured:
[1] = test system: MUC1-wt; experiment: Immunofluorescence imaging of MUC1-wt in P cells (Example 2); format: cell-based; conditions: for EC50: 48 hr incubation, MUC1-wt; for WT EMax / WT ECMax (%): 48 hr; for WT EMax: DMSO = 0, JQ1 = −100% activity, in %; for WT ECMax (%): DMSO = 0, JQ1 (250 nM) = −100% activity
Procedure: (§1) P cells were seeded 24 hr prior to compound treatment at a density of 12,000 cells/well in 384 well Cell Carrier Ultra plates (6057308, Perkin Elmer), pre-coated with 0.25 mg/mL Synthemax II SC Substrate (3535, Corning). Compounds were used at 5 doses (35, 3.5, 0.35, 0.035 and 0.0035 μM) for the primary screen and 10 doses (16, 5.6, 1.8, 0.6, 0.21, 0.07, 0.02, 0.008, 0.002 and 0.0008 μM) for the following screens. The compounds, in two replicates, were transferred from compound source plates to the cell plates using the HighRes Pin Tool. DMSO was used as a negative control and JQ1 (250 nM) (a bromodomain inhibitor) was chosen as a positive control, based on earlier studies showing its potent effect on reducing total MUC1 mRNA levels (data not shown). After 48 hr incubation, cells were fixed for 20 min in 4% PFA (Electron Microscopy Sciences) in PBS, washed twice, then permeabilized (10 min) with 0.5% Triton-X100 (X100-100ML, Sigma-Aldrich) in PBS and washed once more. Cells were blocked for 10 min at RT with Blocking solution (100 mM Tris HCL pH8; 150 mM NaCL; 5 g/L Blocking Reagent [11096176001, Roche]), then incubated 90 min at RT with one of the following primary antibodies in Roche Blocking solution: 1:500, monoclonal Fab-A-VSH anti-MUC1-fs, AbD22655.2, Bio-Rad; 1:2000, monoclonal mouse anti-MUC1 (214D4), 05-652-KC, Millipore; 1:1000, monoclonal, Rabbit anti-GM130 (D6B1) XP, 12480, Cell signaling technology. The primary antibody cocktail was incubated at RT for 1.5 hr, followed by four PBS wash cycles. The secondary antibody cocktail contained four components that were all prepared at a 1:1000 dilution in the Roche blocking solution and consisted of Alexa Fluor® 488-conjugated AffiniPure F(ab′)2 Fragment Goat anti-Human IgG, 109-546-097, Jackson Immunoresearch; Alexa Fluor® 647-conjugated Goat anti-Rabbit IgG, A-21246, Thermo Fisher Scientific®; Alexa Fluor® 546 Goat anti-mouse IgG, A-21123, Thermo Fisher Scientific® and Hoechst 33342 stain (62249, Thermo Fisher Scientific®). The secondary antibody cocktail was incubated at RT for 45 min, followed by four PBS wash cycles. Finally, plates were sealed with a Plate Loc plate and stored in Liconic incubator at 10° C. until imaging. Following image analysis, three parameters were selected, i) MUC1-fs and ii) MUC1-wt total cytoplasm intensity (averaged per cell) and iii) cell number as was detected by Hoechst 33342 stained nuclei. The levels of MUC1-fs and MUC1-wt found following DMSO and JQ1 were defined as 0 and −100% activity, respectively. The values obtained for all compounds were normalized accordingly. Cell number was normalized to DMSO control.

[2] = test system: MUC1-fs; experiment: Immunofluorescence imaging of MUC1-fs in P cells (Example 2); format: cell-based; conditions: for EC50: 48 hr incubation, MUC1-fs; for Emax / ECMax (%): 48 hr; for Emax: DMSO = 0, JQ1 = −100% activity, in %; for ECMax (%): DMSO = 0, JQ1 (250 nM) = −100% activity
Procedure: as §1

In the case of C[C@]1(N)[C@@H]2CC[C@@H](C2)C12CCCCC2.Cl [Compound 234, (1S,3S,4R)-3-methylspiro[bicyclo[2.2.1]heptane-2,1′-cyclohexan]-3-amine hydrochloride], the EC50 ([1]; read-out: WT EC50) is reported as over 16 µM, the “WT EMax” value [1] is reported as 6.7 and the EC50 ([2]; read-out: EC50) is reported as 4.83 µM. For the same compound, the Emax [2] was −96.
CCC1(CC)[C@H]2CC[C@H](C2)[C@H]1N.Cl (racemic) [Compound 204] was tested, and the EC50 ([1]; read-out: WT EC50 (Cytoplasm)) was 1.01 µM, the “WT ECMax (%)” value [1] was 190.26% and the EC50 ([2]; read-out: EC50(Spot)) was 0.01 µM. The “ECMax (%)” value [2] was −85.02%.
With C[C@H]1CC[C@@]2(C1)[C@H]1CC[C@H](C1)[C@H]2N.Cl [Compound 210-P1-A] the EC50 ([1]; read-out: WT EC50 (Cytoplasm)) was over 32 µM, the “WT ECMax (%)” value [1] was 0.73% and the EC50 ([2]; read-out: EC50(Spot)) was 26.9 µM. The “ECMax (%)” value [2] was −33.62%.
In the case of CC1(CC2CC2)C2CCC(C2)C1N.Cl (racemic) [Compound 243-A, rac-3-(cyclopropylmethyl)-3-methylbicyclo[2.2.1]heptan-2-amine hydrochloride], the EC50 ([1]; read-out: WT EC50) is reported as over 16 µM, the “WT EMax” value ([1]; hydrochloride) is reported as 3.2 and the EC50 ([2]; read-out: EC50) is reported as over 16 µM. It also gave an Emax ([2]; hydrochloride) of −40.4.
With COCC1CCCC2(C1)C1CCC(C1)C2N.Cl (racemic) [Compound 225-1, rac-3′-(methoxymethyl)spiro[bicyclo[2.2.1]heptane-2,1′-cyclohexan]-3-amine hydrogen chloride] the EC50 ([1]; read-out: WT EC50) was over 16 µM, the “WT EMax” value [1] was −15.8 and the EC50 ([2]; read-out: EC50) was over 16 µM. The Emax [2] was −13.3.
With COC1CC2(CC1OC)C1CCC(C1)C2N.Cl (racemic) [Compound 229, rac-3′,4′-dimethoxyspiro[bicyclo[2.2.1]heptane-2,1′-cyclopentan]-3-amine hydrochloride] the EC50 ([1]; read-out: WT EC50) was over 16 µM, the “WT EMax” value [1] was 10.3 and the EC50 ([2]; read-out: EC50) was 15.5 µM. It also gave an Emax [2] of −48.1.
For Cl.NC1C2CCC(C2)C12CC(O)C(O)C2 (racemic) [Compound 228, rac-3-aminospiro[bicyclo[2.2.1]heptane-2,1′-cyclopentane]-3′,4′-diol hydrochloride], the EC50 ([1]; read-out: WT EC50) was over 16 µM, the “WT EMax” value [1] was −10.2 and the EC50 ([2]; read-out: EC50) was over 16 µM. The Emax [2] was −15.1.
With Cl.N[C@H]1[C@@H]2CC[C@@H](C2)C12CCCC(C(=O)N1CCOCC1)C2 (stereo partly drawn) [Compound 226-1, ((1S,3S,4R)-3-aminospiro[bicyclo[2.2.1]heptane-2,1′-cyclohexan]-3′-yl)(morpholino)methanone hydrochloride] the EC50 ([1]; read-out: WT EC50) was over 16 µM, the “WT EMax” value [1] was −24.5 and the EC50 ([2]; read-out: EC50) was over 16 µM. It also gave an Emax [2] of −32.0.
With COCC1CCCC2(C1)C1CCC(C1)C2N.Cl (racemic) [Compound 225-2, rac-3′-(methoxymethyl)spiro[bicyclo[2.2.1]heptane-2,1′-cyclohexan]-3-amine hydrogen chloride] the EC50 ([1]; read-out: WT EC50) was over 16 µM, the “WT EMax” value [1] was −11.1 and the EC50 ([2]; read-out: EC50) was 10.1 µM. The Emax [2] was −20.7.
With CC[C@@]1(Cc2ccccc2)[C@@H]2CC[C@@H](C2)[C@@H]1N.Cl [Compound 219-P2, (1S,2S,3R,4R)-3-benzyl-3-ethylbicyclo[2.2.1]heptan-2-amine hydrochloride] the EC50 ([1]; read-out: WT EC50) was over 16 µM, the “WT EMax” value [1] was 11.3 and the EC50 ([2]; read-out: EC50) was over 16 µM. The Emax [2] was −10.3.
In the case of NC1C2CCC(C2)C12CCC(O)C2 (racemic) [Compound 249C, rac-3-aminospiro[bicyclo[2.2.1]heptane-2,1′-cyclopentan]-3′-ol], the EC50 ([1]; read-out: WT EC50) is reported as over 16 µM, the “WT EMax” value [1] is reported as −11.9 and the EC50 ([2]; read-out: EC50) is reported as 6.38 µM. It also gave an Emax [2] of −74.4.
For CC(=O)OC1CC2(CC1OC(C)=O)C1CCC(C1)C2N.Cl (racemic) [Compound 230, rac-3-aminospiro[bicyclo[2.2.1]heptane-2,1′-cyclopentane]-3′,4′-diyl diacetate hydrochloride], the EC50 ([1]; read-out: WT EC50) was over 16 µM, the “WT EMax” value [1] was −16.1 and the EC50 ([2]; read-out: EC50) was over 16 µM. For the same compound, the Emax [2] was −12.8.
In the case of C[C@@H]1CC[C@]2(C1)[C@H]1CC[C@H](C1)[C@H]2N.Cl [Compound 211-P1-A], the EC50 ([1]; read-out: WT EC50 (Cytoplasm)) is reported as over 5.6 µM, the “WT ECMax (%)” value [1] is reported as 9.39% and the EC50 ([2]; read-out: EC50(Spot)) is reported as 1.22 µM. The “ECMax (%)” value [2] was −87.44%.
With CCC1(CC)[C@H]2CC[C@H](C2)[C@H]1N [Compound 204-P1] the EC50 ([1]; read-out: WT EC50 (Cytoplasm)) was 3.32 µM, the “WT ECMax (%)” value [1] was 197.55% and the EC50 ([2]; read-out: EC50(Spot)) was 0.03 µM. For the same compound, the “ECMax (%)” value [2] was −118.54%.
In the case of “(1S,3R,4R)-spiro[bicyclo[2.2.1]heptane-3,1′-cyclopentan]-2-amine hydrochloride [Compound 209-P2]”, the EC50 ([1]; read-out: WT EC50 (Cytoplasm)) is reported as 2.06 µM, the “WT ECMax (%)” value [1] is reported as −210% and the EC50 ([2]; read-out: EC50(Spot)) is reported as 0.01 µM. For the same compound, the “ECMax (%)” value [2] was −64.28%.
For CCCC1(CCC)[C@H]2CC[C@H](C2)[C@H]1N.Cl (racemic) [Compound 205], the EC50 ([1]; read-out: WT EC50 (Cytoplasm)) was over 32 µM, the “WT ECMax (%)” value [1] was −12.24% and the EC50 ([2]; read-out: EC50(Spot)) was over 32 µM. For the same compound, the “ECMax (%)” value [2] was −3.08%.
With Cl.N[C@@H]1[C@@H]2CC[C@@H](C2)[C@]12CC=CCC2 (racemic) [Compound 213] the EC50 ([1]; read-out: WT EC50 (Cytoplasm)) was over 1.8 µM, the “WT ECMax (%)” value [1] was about 175% and the EC50 ([2]; read-out: EC50(Spot)) was 0.02 µM. The “ECMax (%)” value [2] was −86.49%.
